Data published in patent publication EP1626095A1, “Fluorescence-based kinetic determination of transglutaminase activity” (N-Zyme BioTec GmbH, priority 2004, dated 2006).
Where a SMILES comes first, the peptide text is derived from it. [ ]: non-standard residue; d: D form. The star is where a group is joined. X1 = O=[N+]([O-])c1ccc(NCCCCCN*)c([N+](=O)[O-])c1; 2Abz = Nc1ccccc1C(=O)O

Key:
[1] = biological target: T1, gereinigte rekombinante humane Transglutaminase 2 (Homo sapiens, UniProt P21980); experiment: Selectivity test: fluorescence-based kinetic transglutaminase activity measurement (release of quencher from substrate peptide), Ansatz 2; type: biochemical; conditions: substrate peptide 50 µM; rhHis6TG2 0,25 µM; 6 % DMSO; Exc.: 310 nm Em.: 427 nm, 20 min
T1 construct: His6
T1 sequence (P21980 1-687): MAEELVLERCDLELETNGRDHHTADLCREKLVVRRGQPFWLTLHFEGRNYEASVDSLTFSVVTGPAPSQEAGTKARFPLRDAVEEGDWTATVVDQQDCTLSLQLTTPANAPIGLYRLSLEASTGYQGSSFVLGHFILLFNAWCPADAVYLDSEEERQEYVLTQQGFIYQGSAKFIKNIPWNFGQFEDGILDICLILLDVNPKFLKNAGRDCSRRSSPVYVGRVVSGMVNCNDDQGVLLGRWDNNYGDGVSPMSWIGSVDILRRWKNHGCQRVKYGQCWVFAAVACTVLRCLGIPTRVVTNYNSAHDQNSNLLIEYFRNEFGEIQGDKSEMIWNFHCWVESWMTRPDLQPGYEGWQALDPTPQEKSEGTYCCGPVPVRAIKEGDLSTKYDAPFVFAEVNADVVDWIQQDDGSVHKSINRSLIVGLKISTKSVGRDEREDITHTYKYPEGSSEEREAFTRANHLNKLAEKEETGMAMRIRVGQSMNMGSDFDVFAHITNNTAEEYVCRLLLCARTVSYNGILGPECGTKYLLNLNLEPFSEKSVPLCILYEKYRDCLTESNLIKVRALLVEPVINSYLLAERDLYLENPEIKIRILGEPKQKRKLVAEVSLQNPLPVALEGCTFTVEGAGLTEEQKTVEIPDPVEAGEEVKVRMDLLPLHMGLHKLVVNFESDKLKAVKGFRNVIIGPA
Text: (§1) Selektivität der Messungen verschiedener Transglutaminasen
2. Ansatz: Abz-Asn-Glu(CAD-DNP)-Glu-Gln-Val-Ser-Pro-Leu-Thr-Leu-Leu-Lys (2) Transglutaminase: gereinigte rekombinante humane Transglutaminase 2

Faktor XIII = biological target: T2, Faktor XIII (Homo sapiens, UniProt P00488); experiment: Selectivity test: fluorescence-based kinetic transglutaminase activity measurement (release of quencher from substrate peptide), Ansatz 1; type: biochemical; conditions: substrate peptide 50 µM; Faktor XIII: 100 µl Citratplasma; 6 % DMSO; Exc.: 310 nm Em.: 427 nm, 20 min
T2 construct: 100 µl Citratplasma; from tissue; host or cells: citrate plasma
T2 sequence (P00488 39-732 limits assumed): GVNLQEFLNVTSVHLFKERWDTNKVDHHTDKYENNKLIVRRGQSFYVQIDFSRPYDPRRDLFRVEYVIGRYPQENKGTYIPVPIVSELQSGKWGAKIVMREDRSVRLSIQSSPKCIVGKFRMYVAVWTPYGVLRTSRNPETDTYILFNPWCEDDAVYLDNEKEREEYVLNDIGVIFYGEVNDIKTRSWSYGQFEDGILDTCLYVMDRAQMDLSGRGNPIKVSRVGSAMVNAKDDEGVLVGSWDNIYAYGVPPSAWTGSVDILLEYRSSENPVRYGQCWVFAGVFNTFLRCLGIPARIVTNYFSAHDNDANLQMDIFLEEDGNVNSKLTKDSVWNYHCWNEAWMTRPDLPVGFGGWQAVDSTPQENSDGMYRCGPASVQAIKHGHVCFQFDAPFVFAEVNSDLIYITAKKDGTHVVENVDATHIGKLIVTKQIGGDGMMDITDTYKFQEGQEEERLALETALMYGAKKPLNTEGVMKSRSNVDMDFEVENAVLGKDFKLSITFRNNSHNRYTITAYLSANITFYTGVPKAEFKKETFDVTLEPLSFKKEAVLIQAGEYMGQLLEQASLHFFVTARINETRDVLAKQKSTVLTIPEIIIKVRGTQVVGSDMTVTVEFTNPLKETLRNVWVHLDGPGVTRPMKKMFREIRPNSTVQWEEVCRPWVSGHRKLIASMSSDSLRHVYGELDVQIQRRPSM
Text: as §1
1. Ansatz: Substratpeptid: Abz-Ala-Pro-Glu(CAD-DNP)-Gln-Glu-Ala (3), Transglutaminase: Faktor XIII

| Compound | Ergebnis (Anstieg der Fluoreszenz) [1] | Ergebnis (Anstieg der Fluoreszenz) (Faktor XIII) |
| --- | --- | --- |
| 2-Aminobenzoyl-L-asparaginyl-N^δ-[N-(2,4-dinitrophenyl)1-5-aminopentyl]-L-glutaminyl-L-glutamyl-L-glutaminyl-L-valinyl-L-serinyl-L-prolinyl-L-leucinyl-L-threoninyl-L-leucinyl-L-leucin-L-lysin [Verbindung 2] | kein Anstieg der Fluoreszenz |  |
| C[C@H](NC(=O)[C@H](CCC(=O)O)NC(=O)[C@H](CCC(N)=O)NC(=O)[C@H](CCC(=O)NCCCCCNc1ccc([N+](=O)[O-])cc1[N+](=O)[O-])NC(=O)[C@@H]1CCCN1C(=O)[C@H](C)NC(=O)c1ccccc1N)C(=O)O [Verbindung 3] (H-[2Abz]APE(X1)QEA-OH) |  | Ergebnis: kein Anstieg der Fluoreszenz |
